Data on 23 molecules can be found in patent US20100184751A1, “HETEROCYCLIC COMPOUNDS FOR THE TREATMENT OF TUBERCULOSIS” (priority 2007, published 2010).

Where a name gives a salt, the structure may show the parent alone. Read-outs that look alike come from different tables or passages of the source. Some results are limits rather than exact numbers.

This assay relates to Mycobacterium tuberculosis H37Rv. Put plainly: Mycobacterium tuberculosis H37Rv inhibition assay (resazurin MIC). Type of assay: cell-based. The conditions noted are these: ATCC 25618 / H37Rv, read-out: MIC value.
Where [1] appears, read: 144 h, H37Rv strain (ATCC25618), Middlebrook 7H9, 37° C., six days, resazurin fluorescence after 48 hours.
Where [2] appears, read: H37Rv strain (ATCC25618), Middlebrook 7H9, 37° C., six days, resazurin fluorescence after 48 hours.

Regarding `O=c1ccc2ncc(Cl)c3c2n1CC3(O)CN1CCC(NCc2cc3c(cn2)OCCC3)CC1` (racemic) [Example 13, (4R/S)-3-Chloro-4-({4-[(3,4-dihydro-2H-pyrano[2,3-c]pyridin-6-ylmethyl)amino]-1-piperidinyl}methyl)-4-hydroxy-4,5-dihydro-7H-pyrrolo[3,2,1-de]-1,5-naphthyridin-7-one Dihydrochloride], the MIC under setting [1] was at most 4 mg/L.

On to `O=C1CSc2ccc(CNC3CCN(CC4(O)Cn5c(=O)ccc6ncc(Cl)c4c65)CC3)nc2N1` (racemic) [Example 14, (4R/S)-3-Chloro-4-hydroxy-4-[(4-{[(3-oxo-3,4-dihydro-2H-pyrido[3,2-b][1,4]thiazin-6-yl)methyl]amino}-1-piperidinyl)methyl]-4,5-dihydro-7H-pyrrolo[3,2,1-de]-1,5-naphthyridin-7-one Dihydrochloride], for which the minimal inhibitory concentration (MIC) was at most 1.7 mg/L. Besides, the minimum inhibitory concentration (MIC) under setting [1] is at most 4 mg/L. As to `O=c1ccc2ncc(Cl)c3c2n1CC3(O)CN1CCC(NCc2cc3c(cn2)OCS3)CC1` (racemic) [Example 15, (4R/S)-3-Chloro-4-hydroxy-4-({4-[([1,3]oxathiolo[5,4-c]pyridin-6-ylmethyl)amino]-1-piperidinyl}methyl)-4,5-dihydro-7H-pyrrolo[3,2,1-de]-1,5-naphthyridin-7-one Dihydrochloride], under setting [1], the minimal inhibitory concentration (MIC) was at most 4 mg/L. Consider `O=c1ccc2ncc(F)c3c2n1C[C@@]3(O)CN1CCC(NCc2cc3c(cn2)OCCO3)CC1` [Example 1, (4S)-4-({4-[(2,3-Dihydro[1,4]dioxino[2,3-c]pyridin-7-ylmethyl)amino]-1-piperidinyl}methyl)-3-fluoro-4-hydroxy-4,5-dihydro-7H-pyrrolo[3,2,1-de]-1,5-naphthyridin-7-one (E1 Enantiomer Series) Hydrochloride], for which the MIC under setting [1] is at most 4 mg/L. With `O=c1ccc2ncc(F)c3c2n1C[C@@]3(O)CN1CCC(NCc2ccc3c(c2)OCCO3)CC1` [Example 3A, (4S)-4-({4-[(2,3-Dihydro-1,4-benzodioxin-6-ylmethyl)amino]-1-piperidinyl}methyl)-3-fluoro-4-hydroxy-4,5-dihydro-7H-pyrrolo[3,2,1-de]-1,5-naphthyridin-7-one (E1 Enantiomer Series) Dihydrochloride], the MIC under setting [1] is at most 4 mg/L and the minimal inhibitory concentration (MIC) under setting [2] was at most 1.7 mg/L.

Consider `O=C1CSc2ccc(CNC3CCN(C[C@]4(O)Cn5c(=O)ccc6ncc(F)c4c65)CC3)nc2N1` [Example 6, (4S)-3-Fluoro-4-hydroxy-4-[(4-{[(3-oxo-3,4-dihydro-2H-pyrido[3,2-b][1,4]thiazin-6-yl)methyl]amino}-1-piperidinyl)methyl]-4,5-dihydro-7H-pyrrolo[3,2,1-de]-1,5-naphthyridin-7-one (E1 Enantiomer Series) Dihydrochloride], for which the MIC under setting [1] was at most 4 mg/L and the MIC under setting [2] was at most 1.7 mg/L. The corresponding values for `O=c1ccc2ncc(F)c3c2n1C[C@@]3(O)CN1CCC(NCc2cc3c(cn2)OCCS3)CC1` [Example 8A, (4S)-4-({4-[(2,3-Dihydro[1,4]oxathiino[2,3-c]pyridin-7-ylmethyl)amino]-1-piperidinyl}methyl)-3-fluoro-4-hydroxy-4,5-dihydro-7H-pyrrolo[3,2,1-de]-1,5-naphthyridin-7-one (E1 Enantiomer Series) Dihydrochloride] are at most 4 mg/L and at most 1.7 mg/L.

As to `O=c1ccc2ncc(F)c3c2n1C[C@@]3(O)CN1CCC(NCc2cc3c(cn2)OCS3)CC1` [Example 10B, (4S)-3-Fluoro-4-hydroxy-4-({4-[([1,3]oxathiolo[5,4-c]pyridin-6-ylmethyl)amino]-1-piperidinyl}methyl)-4,5-dihydro-7H-pyrrolo[3,2,1-de]-1,5-naphthyridin-7-one (E1 enantiomer series) hydrochloride], the minimal inhibitory concentration (MIC) is at most 4 mg/L under setting [1] and at most 1.7 mg/L under setting [2]. In the case of `O=c1ccc2ncc(F)c3c2n1C[C@@]3(O)CN1CCC(NCc2cc3c(nn2)SCCO3)CC1` [Example 19, (4S)-4-({4-[(6,7-Dihydro[1,4]oxathiino[3,2-c]pyridazin-3-ylmethyl)amino]-1-piperidinyl}methyl)-3-fluoro-4-hydroxy-4,5-dihydro-7H-pyrrolo[3,2,1-de]-1,5-naphthyridin-7-one (E1 Enantiomer Series) Dihydrochloride], the MIC reads like this: under setting [1], at most 4 mg/L; under setting [2], at most 1.7 mg/L. Turning to `O=c1c(F)cc2ncc(F)c3c2n1C[C@@]3(O)CN1CCC(NCc2cc3c(cn2)OCCO3)CC1` [Example 20A, (4S)-4-({4-[(2,3-Dihydro[1,4]dioxino[2,3-c]pyridin-7-ylmethyl)amino]-1-piperidinyl}methyl)-3,8-difluoro-4-hydroxy-4,5-dihydro-7H-pyrrolo[3,2,1-de]-1,5-naphthyridin-7-one (E1 enantiomer series)], the minimum inhibitory concentration (MIC) under setting [1] is at most 4 mg/L. As to `O=c1ccc2ncc(F)c3c2n1C[C@@]3(O)CN1CCC(NCc2cc3c(cn2)SCCO3)CC1` [Example 23A, Dihydrochloride], the minimum inhibitory concentration (MIC) runs as follows: under setting [1], at most 4 mg/L; under setting [2], at most 1.7 mg/L.

As to `O=c1ccc2ncc(F)c3c2n1CC3(F)CN1CCC(NCc2cc3c(cn2)OCCO3)CC1` (stereo not drawn) [Example 26B, 4-({4-[(2,3-Dihydro[1,4]dioxino[2,3-c]pyridin-7-ylmethyl)amino]-1-piperidinyl}methyl)-3,4-difluoro-4,5-dihydro-7H-pyrrolo[3,2,1-de]-1,5-naphthyridin-7-one Dihydrochloride(E1 Enantiomer)], the MIC (144 h) was at most 4 mg/L. Consider `O=C1COc2ccc(CNC3CCN(CC4(F)Cn5c(=O)ccc6ncc(F)c4c65)CC3)nc2N1` (stereo not drawn) [Example 32, 3,4-Difluoro-4-[(4-{[(3-oxo-3,4-dihydro-2H-pyrido[3,2-b][1,4]oxazin-6-yl)methyl]amino}-1-piperidinyl)methyl]-4,5-dihydro-7H-pyrrolo[3,2,1-de]-1,5-naphthyridin-7-one Dihydrochloride (E1 Enantiomer)], for which the minimum inhibitory concentration (MIC) is at most 1.7 mg/L. For the same molecule, the MIC (144 h) is at most 4 mg/L. In the case of `O=c1ccc2ncc(F)c3c2n1CC3(F)CN1CCC(NCc2cc3c(nn2)OCCC3)CC1` (stereo not drawn) [Example 33, 4-({4-[(6,7-Dihydro-5H-pyrano[2,3-c]pyridazin-3-ylmethyl)amino]-1-piperidinyl}methyl)-3,4-difluoro-4,5-dihydro-7H-pyrrolo[3,2,1-de]-1,5-naphthyridin-7-one Dihyclrochloride (E1 Enantiomer)], the MIC under setting [1] is at most 4 mg/L. For `O=c1ccc2ncc(F)c3c2n1C[C@@]3(O)CN1CCC(NCc2ccc3nsnc3c2)CC1` [Example 35, (4S)-4-({4-[(2,1,3-benzothiadiazol-5-ylmethyl)amino]-1-piperidinyl}methyl)-3-fluoro-4-hydroxy-4,5-dihydro-7H-pyrrolo[3,2,1-de]-1,5-naphthyridin-7-one], the minimum inhibitory concentration (MIC) is at most 4 mg/L under setting [1] and at most 1.7 mg/L under setting [2]. For the molecule `O=c1ccc2ncc(F)c3c2n1C[C@@]3(O)CN1CCC(NCc2cc3ccccc3cn2)CC1` [Example 36, (4S)-3-fluoro-4-hydroxy-4-({4-[(3-isoquinolinylmethyl)amino]-1-piperidinyl}methyl)-4,5-dihydro-7H-pyrrolo[3,2,1-de]-1,5-naphthyridin-7-one], the MIC under setting [1] was at most 4 mg/L.

`O=c1ccc2ncc(F)c3c2n1C[C@@]3(O)CN1CCC(NCc2cnc3ccccc3c2)CC1` [Example 37, (4S)-3-fluoro-4-hydroxy-4-({4-[(3-quinolinylmethyl)amino]-1-piperidinyl}methyl)-4,5-dihydro-7H-pyrrolo[3,2,1-de]-1,5-naphthyridin-7-one]: the MIC was at most 4 mg/L under setting [1] and at most 1.7 mg/L under setting [2]. Regarding `O=C1COc2cc(Cl)c(CNC3CCN(C[C@]4(O)Cn5c(=O)ccc6ncc(F)c4c65)CC3)nc2N1` [Example 40, (4S)-4-[(4-{[(7-chloro-3-oxo-3,4-dihydro-2H-pyrido[3,2-b][1,4]oxazin-6-yl)methyl]amino}-1-piperidinyl)methyl]-3-fluoro-4-hydroxy-4,5-dihydro-7H-pyrrolo[3,2,1-de]-1,5-naphthyridin-7-one], the minimum inhibitory concentration (MIC) under setting [1] is at most 4 mg/L and the MIC under setting [2] is at most 1.7 mg/L.

As to `N#Cc1cc(CNC2CCN(C[C@]3(O)Cn4c(=O)ccc5ncc(F)c3c54)CC2)cc2c1OCC2` [Example 41, 5-{[(1-{[(4S)-3-fluoro-4-hydroxy-7-oxo-4,5-dihydro-7H-pyrrolo[3,2,1-de]-1,5-naphthyridin-4-yl]methyl}-4-piperidinyl)amino]methyl}-2,3-dihydro-1-benzofuran-7-carbonitrile], the minimal inhibitory concentration (MIC) is, setting by setting: under setting [1], at most 4 mg/L; under setting [2], at most 1.7 mg/L. With `O=c1ccc2ncc(F)c3c2n1C[C@@]3(O)CN1CCC(NCc2ccc3scnc3c2)CC1` [Example 42, (4S)-4-({4-[(1,3-benzothiazol-5-ylmethyl)amino]-1-piperidinyl}methyl)-3-fluoro-4-hydroxy-4,5-dihydro-7H-pyrrolo[3,2,1-de]-1,5-naphthyridin-7-one], the MIC under setting [1] is at most 4 mg/L. Regarding `O=c1ccc2ncc(F)c3c2n1C[C@@]3(O)CN1CCC(NCc2ccc3snnc3c2)CC1` [Example 46, (4S)-4-({4-[(1,2,3-benzothiadiazol-5-ylmethyl)amino]-1-piperidinyl}methyl)-3-fluoro-4-hydroxy-4,5-dihydro-7H-pyrrolo[3,2,1-de]-1,5-naphthyridin-7-one], the minimal inhibitory concentration (MIC) under setting [1] was at most 4 mg/L and the MIC under setting [2] was at most 1.7 mg/L. Take `O=c1ccc2ncc(F)c3c2n1C[C@@]3(O)CN1CCC(NCc2ccc3nonc3c2)CC1` [Example 48, (4S)-4-({4-[(2,1,3-benzoxadiazol-5-ylmethyl)amino]-1-piperidinyl}methyl)-3-fluoro-4-hydroxy-4,5-dihydro-7H-pyrrolo[3,2,1-de]-1,5-naphthyridin-7-one]: the MIC runs as follows: under setting [1], at most 4 mg/L; under setting [2], at most 1.7 mg/L. With `O=c1ccc2ncc(F)c3c2n1C[C@@]3(O)CN1CCC(NCc2ccc3cccc(O)c3n2)CC1` [Example 49, (4S)-3-fluoro-4-hydroxy-4-[(4-{[(8-hydroxy-2-quinolinyl)methyl]amino}-1-piperidinyl)methyl]-4,5-dihydro-7H-pyrrolo[3,2,1-de]-1,5-naphthyridin-7-one], under setting [1], the MIC was at most 4 mg/L.
